The source of these data is PubChem BioAssay (NCI).

Among the test systems are A549 NSCLC; MCF7 breast; HOP-62 NSCLC; OVCAR-8 ovarian; SR leukemia; RPMI-8226 leukemia; 786-0 renal; OVCAR-5 ovarian; SNB-19 CNS; U251 CNS.
Holding throughout (test): NCI tumour cell line growth inhibition, 48 h

Where “and” joins values, the source holds several entries; their conditions need not be identical. Equal entries are not always repeated.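 1) Cells in 96-well plates. 2) Compound, 48 h, 5 concentrations. 3) Linear interpolation between surrounding doses. 4) Unreached endpoint = highest concentration. Here, GI50 denotes the concentration required for 50% inhibition of growth. At the TGI there is no net growth.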 Where a SMILES comes first, the peptide text is derived from it. The star is where a group is joined. Boc = CC(C)(C)OC(=O)*

With `Cc1ccc(Nc2oc(-c3ccccc3)nc2[P+](c2ccccc2)(c2ccccc2)c2ccccc2)cc1`, the GI50 with A549 NSCLC was 0.938 µM; with MCF7 breast, 0.433 µM; with HOP-62 NSCLC it was 1.34 µM; in the assay with OVCAR-8 ovarian, 1.04 µM; with SR leukemia it was 0.698 µM; with RPMI-8226 leukemia, 0.243 µM. Besides, the GI50 is 1.1 µM in the assay on 786-0 renal, 1.63 µM with OVCAR-5 ovarian, 1.04 µM in the assay with SNB-19 CNS and 0.538 µM with U251 CNS. For the same compound, the TGI in the assay on A549 NSCLC amounted to 3.23 µM; in the assay on MCF7 breast it was 1.98 µM; with HOP-62 NSCLC it was 3.24 µM; in the assay with OVCAR-8 ovarian it was 3.34 µM; in the assay with SR leukemia, 2.44 µM; in the assay on RPMI-8226 leukemia, 0.639 µM. Also, the TGI with 786-0 renal came to 2.45 µM; in the assay with OVCAR-5 ovarian it was 4.38 µM; with SNB-19 CNS it was 2.94 µM; in the assay on U251 CNS, 1.71 µM.

Turning to `CN(C)C/C=C/C(=O)Nc1cc2c(Nc3ccc(F)c(Cl)c3)ncnc2cc1O[C@H]1CCOC1`, the GI50 was 1.48 µM and 1.6 µM with A549 NSCLC; 2.23 µM and 2.12 µM in the assay on MCF7 breast; 2.49 µM and 3.38 µM in the assay with HOP-62 NSCLC; 1.36 µM and 1.88 µM with OVCAR-8 ovarian; 3.46 µM and 1.26 µM with SR leukemia; 1.76 µM and 2.14 µM in the assay on RPMI-8226 leukemia. For the same compound, the GI50 in the assay on 786-0 renal is 2.3 µM and 1.79 µM; in the assay on OVCAR-5 ovarian, 0.843 µM and 0.345 µM; in the assay on SNB-19 CNS, 2.76 µM and 2.42 µM; in the assay on U251 CNS it was 0.58 µM and 1.35 µM. For the same compound, the TGI was 7.55 µM and > 10 µM in the assay with A549 NSCLC; 9.14 µM and > 10 µM with MCF7 breast; 6.86 µM and > 10 µM with HOP-62 NSCLC; 5.37 µM and > 6.85 µM in the assay with OVCAR-8 ovarian; 13.2 µM and 6.5 µM with SR leukemia; 5.39 µM and > 6.56 µM in the assay with RPMI-8226 leukemia. Besides, the TGI was 13.9 µM and > 10 µM with 786-0 renal; 13.3 µM and > 10 µM in the assay on OVCAR-5 ovarian; 15.7 µM and > 10 µM in the assay on SNB-19 CNS; 2.96 µM and > 10 µM in the assay on U251 CNS.

Take `COC(=O)C1=CN(CC2=CC(=O)C(C)=CC2=O)C=C(C(=O)OC)C1c1cccc(OC)c1`: the GI50 was 25.1 µM in the assay on A549 NSCLC; 16 µM with MCF7 breast; 19.3 µM with HOP-62 NSCLC; above 51.9 µM with OVCAR-8 ovarian; 4.74 µM in the assay with SR leukemia; 1.95 µM in the assay with RPMI-8226 leukemia. The GI50 is above 22.5 µM with 786-0 renal, 19 µM with OVCAR-5 ovarian, 26 µM in the assay on SNB-19 CNS and 8.47 µM with U251 CNS. Also, the TGI in the assay with A549 NSCLC was above 67.2 µM; with MCF7 breast, above 100 µM; in the assay with HOP-62 NSCLC it was 38.9 µM; with OVCAR-8 ovarian, above 100 µM; in the assay on SR leukemia, 35 µM; with RPMI-8226 leukemia, 5.06 µM. Besides, the TGI in the assay with 786-0 renal is above 41 µM; in the assay with OVCAR-5 ovarian, 42 µM; in the assay on SNB-19 CNS, above 79.2 µM; in the assay on U251 CNS it was 30.5 µM.

Consider `Nc1ccn(C2OC(CO)C(O)C2O)c(=O)n1` (stereo not drawn), for which the GI50 is 0.422 µM with A549 NSCLC; 0.0408 µM with MCF7 breast; 0.237 µM in the assay with HOP-62 NSCLC; 0.392 µM with OVCAR-8 ovarian; 3.75 µM in the assay with RPMI-8226 leukemia; 0.396 µM in the assay on 786-0 renal. For the same compound, the GI50 with SNB-19 CNS was 2.19 µM; in the assay with U251 CNS it was 0.635 µM. The TGI in the assay with MCF7 breast is > 100 µM and 434 µM and > 500 µM; in the assay with OVCAR-8 ovarian, above 500 µM; in the assay with SR leukemia it was > 100 µM and > 29.3 µM and 53.7 µM; in the assay with RPMI-8226 leukemia it was above 500 µM; in the assay on 786-0 renal it was > 100 µM and 388 µM and > 500 µM; in the assay with OVCAR-5 ovarian, > 100 µM and 392 µM and > 500 µM. Also, the TGI in the assay with SNB-19 CNS was > 100 µM and 469 µM and > 500 µM; in the assay with U251 CNS, above 500 µM.

With `COC(=O)C(C)NC(=O)C(CCSC)NC(=O)C(Cc1ccccc1)NC(=O)OC(C)(C)C` (stereo not drawn) (Boc-Phe-Met-Ala-OMe; configuration not given here), the GI50 with A549 NSCLC is 35.7 µg/mL; with MCF7 breast it was 31.7 µg/mL; with SR leukemia it was 21.4 µg/mL; in the assay with RPMI-8226 leukemia, 22.4 µg/mL; in the assay with 786-0 renal, 43.3 µg/mL; in the assay with OVCAR-5 ovarian, 31.6 µg/mL. Moreover, in the assay on U251 CNS, the GI50 was 22.6 µg/mL. The TGI in the assay on A549 NSCLC was above 100 µM; with MCF7 breast, above 100 µM; in the assay with HOP-62 NSCLC, above 100 µM; in the assay with OVCAR-8 ovarian, above 100 µM; with SR leukemia, 44.8 µg/mL and > 100 µM; with RPMI-8226 leukemia, 49.5 µg/mL and > 100 µM. The TGI with 786-0 renal is above 100 µM; in the assay on OVCAR-5 ovarian, above 100 µM; in the assay with SNB-19 CNS, above 100 µM; with U251 CNS it was 67 µg/mL and > 100 µM.

On to `CC1(C)N=C(N)N=C(N)N1c1ccc(CCCCc2ccc(Cl)c(S(=O)(=O)F)c2)c(Cl)c1`, for which the GI50 in the assay on A549 NSCLC was 0.319 µM; in the assay on MCF7 breast it was 0.529 µM; in the assay with HOP-62 NSCLC, 5.82 µM; in the assay with OVCAR-8 ovarian, 0.557 µM; in the assay with SR leukemia, 0.186 µM; with RPMI-8226 leukemia it was 0.527 µM. The GI50 in the assay on 786-0 renal was 1.63 µM; in the assay on OVCAR-5 ovarian, 13.9 µM; in the assay on SNB-19 CNS it was 3.07 µM; in the assay on U251 CNS, 0.437 µM. Moreover, the TGI is 3.98 µM with A549 NSCLC; 16.9 µM in the assay with MCF7 breast; above 43.7 µM with HOP-62 NSCLC; 24.5 µM in the assay with OVCAR-8 ovarian; 3.36 µM in the assay with SR leukemia; 3.32 µM with RPMI-8226 leukemia. Moreover, the TGI is above 39.7 µM with 786-0 renal, 27.1 µM in the assay with OVCAR-5 ovarian, 20.6 µM in the assay with SNB-19 CNS and 19.6 µM in the assay with U251 CNS.
